One data set concerns migraine symptoms. The settings on record: reported; cited from earlier work.
A further data set deals with mice. Briefly: hot plate test in mice (foot licking latency). It is filed as in vivo. The settings on record: 600 orally, 60 minutes after administration, hot plate 54° C., compared to vehicle. For orientation: In hot-plate and tail-flick tests a longer latency is read as antinociception.
Data set [1] can be described thus: oral absorption / bioavailability of isovaleramide. The settings on record: in vivo.
Data set [2] deals with chronic spinalized rats. Briefly: observational scoring of hyperreflexia elicited by an innocuous stimulus in chronic spinalized rats. It counts as in vivo. The settings on record: 300 mg/kg i.p. On the procedure: (§1) Assessment of hyperreflexia, pain, and muscle tone in chronic spinally transected rats was conducted using male albino Holtzman-derived rats (available from Harlan Sprague-Dawley Laboratories) weighing 270-530 grams as subjects. The rats were housed independently and had continuous access to food and water throughout the experiments. All procedures were reviewed and approved by the Institutional Animal Care and Use Committee. Animals were anesthetized using a mixture of isoflurane and oxygen at a flow rate of 4 liters/minute.
(§2) The rats were placed in a stereotaxic frame and anesthesia was maintained. An incision was made so that the paraspinal muscles could be retracted and a laminectomy performed between T6-T9. A one- to two-millimeter portion of the spinal cord was removed by evacuation and replaced with gel foam to reduce bleeding, after which the incision was closed in layers.
Following the transection, rats were placed in a room in which the ambient temperature was raised to about 80° F. with a space heater to maintain body temperature. On the following morning post-surgery, the hindquarters of the spinalized rats were bathed and their urine expressed manually by applying pressure to their bladders. Experiments were conducted between 21 and 28 days after surgery. For the first two weeks post-surgery, 0.25 ml of the antibiotic Sulfatrim Pediatric Suspension was orally administered to the rats to prevent bladder infection. […] Within approximately two weeks, all animals regained bladder control and were no longer given antibiotic treatment. […]
Initial assessment of hyperreflexia was performed by the subjective scoring method of rating the resulting hyperreflexia response elicited with an innocuous stimulus, such as a metal probe. […] The response was evaluated for each of four trials using a scale ranging from zero (no response in all four trials) to four (a maximum, tonic-clonic reaction elicited in all four trials). […] The raw or normalized scores were analyzed with a one-way repeated measures ANOVA. […]

Data set [3] deals with chronic spinalized rats. Briefly: polysynaptic flexor-reflex responses (EMG) in chronic spinalized rats. It counts as in vivo. The conditions noted are these: for total reduction of the flexor reflex (total area under the curve): two-hour measurement period, several doses, vs vehicle. On the procedure:
as §1, §2
Following the transection, rats were placed in a room in which the ambient temperature was raised to about 80° F. with a space heater to maintain body temperature. On the following morning post-surgery, the hindquarters of the spinalized rats were bathed and their urine expressed manually by applying pressure to their bladders. Experiments were conducted between 21 and 28 days after surgery. For the first two weeks post-surgery, 0.25 ml of the antibiotic Sulfatrim Pediatric Suspension was orally administered to the rats to prevent bladder infection. […]
With reference to FIG. 3, polysynaptic flexor-reflex responses, elicited by stimuli that activate high-threshold afferents, were recorded as EMG activity from the ipsilateral hamstring muscle. […] The flexor reflex was recorded, in both the pre-drug and the post-drug periods, every 30 minutes once a stable baseline response was achieved. […] The responses were determined in spinalized rats by observing the flexor-reflex response before treatment and at each of 30, 60, 90, and 120 minutes following administration of isovaleramide (300 mg/kg p.o.), baclofen (10 mg/kg s.c.) and vehicle (water, 12 ml/kg p.o.), respectively. […]

By bioavailability is commonly meant dose-corrected exposure relative to a reference, in per cent. Higher therefore signals good availability.

For the compound `CNS(=O)(=O)Cc1ccc2[nH]cc(CCN(C)C)c2c1` [sumatriptan], the “patients with relief of the migraine symptoms” value in the data set with migraine symptoms is given as “approximately 40%”.

As to `CC(C)CC(N)=O` [isovaleramide, Isovaleramide], the foot licking latency entry in the data set on mice is “increased foot licking latency”. This compound also displayed a bioavailability in data set [1] of roughly 100%. Moreover, in the data set with chronic spinalized rats [2] (chronic spinalized rats), the “overt behavioral toxicity or motor impairment” value is “No overt behavioral toxicity or motor impairment”. The “reduction of hyperreflexia scores” value with chronic spinalized rats [2] (15, 30, 60 and 120 minutes post-administration) is reported as 45-65%. Besides, in the data set on chronic spinalized rats [2] (1440 minutes (24 hours)), the “hyperreflexia scores by the next day” value was “essentially returned to baseline values”. Besides, in the data set on chronic spinalized rats [3] (300 mg/kg p.o., 30, 60, 90 and 120 minutes, compared with baclofen 10 mg/kg s.c.), the “magnitude of the flexor-reflex responses” value is on record as “reduce the magnitude of the flexor-reflex responses”. Also, the “total reduction of the flexor reflex (total area under the curve)” value with chronic spinalized rats [3] is reported as “dose-dependent reduction of the flexor reflex”.

As to `NCC(CC(=O)O)c1ccc(Cl)cc1` (stereo not drawn) [baclofen, reference compound], the “total reduction of the flexor reflex (total area under the curve)” value in the data set on chronic spinalized rats [3] is “dose-dependent reduction of the flexor reflex”.

Source of the values: patent publication US20050101655A1, “Migraine treatments including isovaleramide compounds and serotonin agonists” (priority 2003, published 2005).
